# Experimental data as given in patent US9371320B2, “Heterocyclic compound” (TAKEDA PHARMACEUTICAL COMPANY LIMITED, priority 2012, dated 2016).
# Experiments:
# JAK1 = target: T1, JAK1 (Homo sapiens, UniProt P23458); experiment: JAK1 enzyme inhibition test (LANCE method); assay type: biochemical; settings: for inhibition at 1 µM: test compound 1 μM, read-out: Inhibitory rate (%) JAK1 1 μM; for inhibition at 10 µM: read-out: Inhibitory rate (%) JAK1 10 μM
# T1 construct: purchased Invitrogen
# Protocol: JAK1 Enzyme Inhibition Test
# (§1) JAK1 enzyme inhibitory activity of test compounds was measured by LANCE method (PerkinElmer). First, a test compound diluted with assay buffer (50 mM HEPES (pH=7.5), 10 mM MgCl2, 1 mM EGTA, 2 mM DTT, 0.01% Tween20, 0.01% BSA) was added to 384-well plate at 2 μL each. Then, a JAK1 (Invitrogen) solution and a fluorescence-labeled peptide substrate (ULight-JAK1, PerkinElmer) solution diluted with assay buffer at 187.5 ng/mL and 300 nM, respectively were added at 2 μL each. Then, enzyme reaction was started by adding 2 μL each of ATP solution prepared with assay buffer at 150 μM. After the reaction at room temperature for 1 hr, Detection Buffer (PerkinElmer) prepared to be 20 mM EDTA, 4 nM europium-labeled anti-phosphotyrosine antibody (PerkinElmer) was added at 6 μL each. After standing at room temperature for 1 hr, fluorescence intensity (excitation wavelength 340 nm, fluorescence wavelength 665 nm, delay time 100 microsecond) was measured by a plate reader, Envision (PerkinElmer). The inhibitory activity of each compound was calculated as relative value where fluorescence intensity of a well without enzyme is considered as 100% inhibition.
# Tyk2 = target: T2, Tyk2 (Homo sapiens, UniProt P29597); experiment: Tyk2 enzyme inhibition test (LANCE method); assay type: biochemical; settings: test compound 1 μM; for inhibition at 1 µM: read-out: Inhibitory rate (%) Tyk2 1 μM
# T2 construct: purchased Invitrogen
# T2 sequence (P29597 whole entry): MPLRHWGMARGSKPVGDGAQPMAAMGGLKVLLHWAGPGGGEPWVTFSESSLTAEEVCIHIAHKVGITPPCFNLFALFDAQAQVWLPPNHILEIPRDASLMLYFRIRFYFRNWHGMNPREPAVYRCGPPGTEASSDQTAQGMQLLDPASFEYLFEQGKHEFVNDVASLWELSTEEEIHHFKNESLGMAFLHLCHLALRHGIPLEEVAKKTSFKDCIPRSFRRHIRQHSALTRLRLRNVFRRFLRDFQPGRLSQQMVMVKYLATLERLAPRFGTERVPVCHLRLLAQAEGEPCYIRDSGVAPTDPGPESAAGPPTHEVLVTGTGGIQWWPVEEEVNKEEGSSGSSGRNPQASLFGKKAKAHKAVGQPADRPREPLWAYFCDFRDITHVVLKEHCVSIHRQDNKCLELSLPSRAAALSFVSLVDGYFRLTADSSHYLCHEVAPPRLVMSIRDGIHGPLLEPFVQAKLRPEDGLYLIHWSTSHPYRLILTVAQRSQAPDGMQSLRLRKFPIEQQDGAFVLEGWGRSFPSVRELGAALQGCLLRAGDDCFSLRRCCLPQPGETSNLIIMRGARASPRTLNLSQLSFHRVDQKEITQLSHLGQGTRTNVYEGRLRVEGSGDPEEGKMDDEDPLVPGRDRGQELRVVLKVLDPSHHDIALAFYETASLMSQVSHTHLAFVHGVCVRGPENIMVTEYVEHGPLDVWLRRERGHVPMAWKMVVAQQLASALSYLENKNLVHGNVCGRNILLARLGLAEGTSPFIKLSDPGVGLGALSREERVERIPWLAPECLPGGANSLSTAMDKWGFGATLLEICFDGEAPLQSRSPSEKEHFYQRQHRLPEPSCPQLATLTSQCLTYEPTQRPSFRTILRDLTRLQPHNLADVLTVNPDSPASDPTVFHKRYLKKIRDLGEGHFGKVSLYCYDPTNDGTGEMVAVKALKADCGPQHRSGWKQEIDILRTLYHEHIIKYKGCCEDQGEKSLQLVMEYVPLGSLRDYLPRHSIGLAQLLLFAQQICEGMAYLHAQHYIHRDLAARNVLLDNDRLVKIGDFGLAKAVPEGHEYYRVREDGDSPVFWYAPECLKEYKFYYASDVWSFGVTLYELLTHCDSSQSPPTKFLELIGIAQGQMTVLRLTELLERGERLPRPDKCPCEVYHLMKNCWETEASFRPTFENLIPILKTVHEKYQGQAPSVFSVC
# Protocol: Tyk2 Enzyme Inhibition Test
# as §1, with “Tyk2 enzyme” for “JAK1 enzyme”, “a Tyk2” for “a JAK1”, “at 375” for “at 187.5”, “at 30” for “at 150”
# [1] = test compound 10 μM (Ex. 182-220), beside Tyk2 1 μM
# T1 sequence (P23458 whole entry): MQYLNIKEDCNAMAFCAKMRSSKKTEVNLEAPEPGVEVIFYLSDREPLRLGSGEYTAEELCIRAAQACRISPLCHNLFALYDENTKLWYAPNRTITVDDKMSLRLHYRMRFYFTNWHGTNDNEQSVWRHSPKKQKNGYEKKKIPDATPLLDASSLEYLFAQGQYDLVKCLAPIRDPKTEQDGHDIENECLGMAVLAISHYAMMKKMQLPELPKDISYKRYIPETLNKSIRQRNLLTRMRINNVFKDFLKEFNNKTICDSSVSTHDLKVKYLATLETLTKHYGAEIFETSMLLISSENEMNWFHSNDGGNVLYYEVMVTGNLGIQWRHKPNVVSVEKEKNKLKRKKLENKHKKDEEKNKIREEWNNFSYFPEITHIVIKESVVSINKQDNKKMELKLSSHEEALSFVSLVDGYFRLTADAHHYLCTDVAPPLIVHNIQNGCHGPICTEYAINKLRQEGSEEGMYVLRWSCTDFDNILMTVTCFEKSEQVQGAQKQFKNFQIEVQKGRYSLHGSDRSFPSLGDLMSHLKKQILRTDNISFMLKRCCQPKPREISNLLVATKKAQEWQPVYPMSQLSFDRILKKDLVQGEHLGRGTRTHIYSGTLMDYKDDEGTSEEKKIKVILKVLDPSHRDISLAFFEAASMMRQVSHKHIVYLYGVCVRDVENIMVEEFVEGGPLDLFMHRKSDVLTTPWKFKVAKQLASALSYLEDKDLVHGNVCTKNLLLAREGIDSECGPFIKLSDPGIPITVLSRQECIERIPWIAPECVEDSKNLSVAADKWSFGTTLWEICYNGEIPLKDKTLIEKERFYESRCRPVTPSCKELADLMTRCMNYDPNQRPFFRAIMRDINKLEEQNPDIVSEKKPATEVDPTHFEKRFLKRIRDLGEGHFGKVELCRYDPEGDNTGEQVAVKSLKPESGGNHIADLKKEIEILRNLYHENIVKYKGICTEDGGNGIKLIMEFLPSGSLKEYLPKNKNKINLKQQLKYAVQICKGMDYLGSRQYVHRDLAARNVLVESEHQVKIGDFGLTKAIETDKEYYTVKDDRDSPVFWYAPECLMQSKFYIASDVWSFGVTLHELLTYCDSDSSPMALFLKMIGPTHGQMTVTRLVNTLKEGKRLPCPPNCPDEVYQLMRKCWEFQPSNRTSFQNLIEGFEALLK
Compound,inhibition at 1 µM (JAK1),inhibition at 1 µM (Tyk2),inhibition at 10 µM (JAK1; [1]),Inhibitory rate (%) JAK1 10 μM (JAK1; [1]),Inhibitory rate (%) Tyk2 1 μM (Tyk2)
"O=c1[nH]ccc2c1c(C1=CCOCC1)nn2C1CCCC1 [Example 42, 1-cyclopentyl-3-(3,6-dihydro-2H-pyran-4-yl)-1,5-dihydro-4H-pyrazolo[4,3-c]pyridin-4-one]",53%,51%,–,–,–
"O=c1[nH]ccc2c1c(-c1ccc(F)cc1)nn2C1CCCC1 [Example 54, 1-cyclopentyl-3-(4-fluorophenyl)-1,5-dihydro-4H-pyrazolo[4,3-c]pyridin-4-one]",91%,91%,–,–,–
"NS(=O)(=O)c1ccc(-c2cn(C3CCCC3)c3cc[nH]c(=O)c23)cc1 [Example 2, 4-(1-cyclopentyl-4-oxo-4,5-dihydro-1H-pyrrolo[3,2-c]pyridin-3-yl)benzenesulfonamide]",99%,97%,–,–,–
"N#Cc1cccc(F)c1-n1nc(-c2cn[nH]c2)c2c(=O)[nH]ccc21 [Example 315, 3-fluoro-2-(4-oxo-3-(1H-pyrazol-4-yl)-4,5-dihydro-1H-pyrazolo[4,3-c]pyridin-1-yl)benzonitrile]",97%,98%,–,–,–
"COc1ccccc1-c1nn(C2CCCC2)c2cc[nH]c(=O)c12 [Example 48, 1-cyclopentyl-3-(2-methoxyphenyl)-1,5-dihydro-4H-pyrazolo[4,3-c]pyridin-4-one]",3%,7%,–,–,–
"O=C(NN1CCOCC1)c1cc(-c2nn(-c3c(F)cccc3F)c3c(Cl)c[nH]c(=O)c23)cs1 [Example 193, 4-(7-chloro-1-(2,6-difluorophenyl)-4-oxo-4,5-dihydro-1H-pyrazolo[4,3-c]pyridin-3-yl)-N-(morpholin-4-yl)thiophene-2-carboxamide]",–,100%,99%,–,–
"CCC(COC)n1cc(-c2ccc(C(N)=O)cc2)c2c(=O)[nH]ccc21 (stereo not drawn) [Example 26, 4-(1-(1-methoxybutan-2-yl)-4-oxo-4,5-dihydro-1H-pyrrolo[3,2-c]pyridin-3-yl)benzamide]",20%,41%,–,–,–
"NS(=O)(=O)c1ccc(-c2nn(C3CCCCC3)c3cc[nH]c(=O)c23)cc1 [Example 6, 4-(1-cyclohexyl-4-oxo-4,5-dihydro-1H-pyrazolo[4,3-c]pyridin-3-yl)benzenesulfonamide]",98%,99%,–,–,–
"CC1(O)CCC(n2nc(-c3csc(C(N)=O)c3)c3c(=O)[nH]ccc32)CC1 (stereo not drawn) [Example 199, 4-(1-(4-hydroxy-4-methylcyclohexyl)-4-oxo-4,5-dihydro-1H-pyrazolo[4,3-c]pyridin-3-yl)thiophene-2-carboxamide]",–,–,–,99%,100%
"O=c1[nH]ccc2c1c(-c1ccc(OC(F)(F)F)cc1)nn2C1CCCC1 [Example 45, 1-cyclopentyl-3-(4-(trifluoromethoxy)phenyl)-1,5-dihydro-4H-pyrazolo[4,3-c]pyridin-4-one]",90%,74%,–,–,–
"CNC(=O)c1cc(-c2cn(C3CCCC3)c3c(C#N)c[nH]c(=O)c23)cs1 [Example 108, 4-(7-cyano-1-cyclopentyl-4-oxo-4,5-dihydro-1H-pyrrolo[3,2-c]pyridin-3-yl)-N-methylthiophene-2-carboxamide]",99%,100%,–,–,–
"NC(=O)c1cccc(-c2nn(-c3c(F)cccc3F)c3c(Cl)c[nH]c(=O)c23)c1 [Example 254, 3-(7-chloro-1-(2,6-difluorophenyl)-4-oxo-4,5-dihydro-1H-pyrazolo[4,3-c]pyridin-3-yl)benzamide]",65%,98%,–,–,–
"O=c1[nH]cc(Cl)c2c1c(-c1ccc(N3CCSCC3)cc1)nn2-c1c(F)cccc1F [Example 236, 7-chloro-1-(2,6-difluorophenyl)-3-(4-(thiomorpholin-4-yl)phenyl)-1,5-dihydro-4H-pyrazolo[4,3-c]pyridin-4-one]",65%,99%,–,–,–
"O=C(c1cc(-c2nn(-c3c(F)cccc3F)c3c(Cl)c[nH]c(=O)c23)cs1)N1CCOCC1 [Example 192, 7-chloro-1-(2,6-difluorophenyl)-3-(5-(morpholin-4-ylcarbonyl)-3-thienyl)-1,5-dihydro-4H-pyrazolo[4,3-c]pyridin-4-one]",–,99%,94%,–,–
"COC(=O)c1cc(-c2nn(-c3c(F)cccc3F)c3cc[nH]c(=O)c23)cs1 [Example 36, methyl 4-(1-(2,6-difluorophenyl)-4-oxo-4,5-dihydro-1H-pyrazolo[4,3-c]pyridin-3-yl)thiophene-2-carboxylate]",97%,98%,–,–,–
"CNC(=O)c1ccc(-c2nn(-c3c(F)cccc3F)c3cc[nH]c(=O)c23)c(F)c1 [Example 294, 4-(1-(2,6-difluorophenyl)-4-oxo-4,5-dihydro-1H-pyrazolo[4,3-c]pyridin-3-yl)-3-fluoro-N-methylbenzamide]",35%,92%,–,–,–
"O=c1[nH]ccc2c1c(Nc1ccccc1)nn2C1CCCC1 [Example 283, 3-anilino-1-cyclopentyl-1,5-dihydro-4H-pyrazolo[4,3-c]pyridin-4-one]",98%,93%,–,–,–
"COC(=O)c1c[nH]c(=O)c2c(-c3csc(C#N)c3)cn(C3CCCC3)c12 [Example 73, methyl 3-(5-cyano-3-thienyl)-1-cyclopentyl-4-oxo-4,5-dihydro-1H-pyrrolo[3,2-c]pyridine-7-carboxylate]",45%,83%,–,–,–
"Cc1ccccc1-c1nn(-c2csc(C(=O)O)c2)c2c(=O)[nH]cc(Br)c12 [Example 79, 4-(4-bromo-3-(2-methylphenyl)-7-oxo-6,7-dihydro-1H-pyrazolo[3,4-c]pyridin-1-yl)thiophene-2-carboxylic acid]",44%,93%,–,–,–
"COCC(=O)N1CCN(c2ccc(-c3nn(-c4c(F)cccc4F)c4cc[nH]c(=O)c34)cc2)CC1 [Example 313, 1-(2,6-difluorophenyl)-3-(4-(4-(methoxyacetyl)piperazin-1-yl)phenyl)-1,5-dihydro-4H-pyrazolo[4,3-c]pyridin-4-one]",95%,100%,–,–,–
"NC(=O)c1cc(F)cc(-c2nn(-c3c(F)cccc3F)c3c(Cl)c[nH]c(=O)c23)c1 [Example 270, 3-(7-chloro-1-(2,6-difluorophenyl)-4-oxo-4,5-dihydro-1H-pyrazolo[4,3-c]pyridin-3-yl)-5-fluorobenzamide]",0%,69%,–,–,–
"CNC(=O)c1ccc(-c2nn(-c3c(F)cccc3F)c3cc[nH]c(=O)c23)cc1 [Example 180, 4-(1-(2,6-difluorophenyl)-4-oxo-4,5-dihydro-1H-pyrazolo[4,3-c]pyridin-3-yl)-N-methylbenzamide]",92%,101%,–,–,–
"N#CCNC(=O)c1cc(-c2nn(-c3c(F)cccc3F)c3c(Cl)c[nH]c(=O)c23)cs1 [Example 191, 4-(7-chloro-1-(2,6-difluorophenyl)-4-oxo-4,5-dihydro-1H-pyrazolo[4,3-c]pyridin-3-yl)-N-(cyanomethyl)thiophene-2-carboxamide]",–,100%,98%,–,–
"N#Cc1c[nH]c(=O)c2c(-c3ccc(OCC(N)=O)cc3)cn(C3CCCC3)c12 [Example 120, 2-(4-(7-cyano-1-cyclopentyl-4-oxo-4,5-dihydro-1H-pyrrolo[3,2-c]pyridin-3-yl)phenoxy)acetamide]",88%,98%,–,–,–
